10 compounds from patent publication US9115127B2 (AMGEN INC., priority 2010, dated 2015) can be followed below.

Structures can show the parent of a compound that is named as a salt.

In one experiment the target is T1, wild-type human ALK (cytoplasmic domain, amino acids 1058-1620, N-terminal GST fusion) (Homo sapiens, UniProt Q9UM73).
T1 construct: The cytoplasmic domain (amino acids 1058-1620) of wild-type human ALK; GST (N); made in house; host or cells: SF9 insect cells
T1 sequence (Q9UM73 1058-1620): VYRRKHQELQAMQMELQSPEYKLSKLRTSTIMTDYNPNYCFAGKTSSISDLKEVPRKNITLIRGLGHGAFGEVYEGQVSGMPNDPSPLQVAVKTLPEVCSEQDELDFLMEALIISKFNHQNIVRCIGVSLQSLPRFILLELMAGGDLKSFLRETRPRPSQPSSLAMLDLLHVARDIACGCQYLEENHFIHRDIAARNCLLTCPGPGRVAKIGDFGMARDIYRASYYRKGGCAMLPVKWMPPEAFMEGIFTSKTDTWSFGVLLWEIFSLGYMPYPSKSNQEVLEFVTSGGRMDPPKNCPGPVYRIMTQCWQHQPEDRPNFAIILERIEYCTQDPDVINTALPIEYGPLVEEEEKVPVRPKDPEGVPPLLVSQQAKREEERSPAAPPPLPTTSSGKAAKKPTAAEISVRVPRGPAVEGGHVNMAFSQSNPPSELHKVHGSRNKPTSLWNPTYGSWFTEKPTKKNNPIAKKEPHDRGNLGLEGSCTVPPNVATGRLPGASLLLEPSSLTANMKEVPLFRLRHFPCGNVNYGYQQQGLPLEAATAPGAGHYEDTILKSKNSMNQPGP
The experiment in a line: ALK Inhibition in Enzyme Assay (Lance TR-FRET kinase assay).
Details: not given
In kind it is biochemical. In outline: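 Purified enzyme phosphorylated a biotinylated peptide substrate for 90 minutes at room temperature. Reactions were stopped with 20 mM EDTA in 50 mM Tris (pH 7.5), 100 mM NaCl, 0.05% BSA, 0.1% Tween-20. Phosphopeptide was detected by TR-FRET with SA-APC and Eu-W1024 anti-phosphotyrosine antibody PT66, excitation 320 nm.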
On the technique in general: TR-FRET usually uses a lanthanide donor and a delayed reading to cut background.
In the case of `C=CCNS(=O)(=O)c1cccc(C(=O)/N=c2\[nH]c3cnc(OCCN4CCCCC4)cc3n2[C@H]2CC[C@H](C(=O)NC(C)C)CC2)c1` [Example 131, (E)-3-(N-Allylsulfamoyl)-N-(1-(trans-4-(isopropylcarbamoyl)cyclohexyl)-6-(2-(piperidin-1-yl)ethoxy)-1H-imidazo[4,5-c]pyridin-2(3H)-ylidene)benzamide], the IC50 was 100 to 1000 nM. Turning to `COC(=O)[C@H]1CC[C@@H](n2/c(=N/C(=O)c3ccccc3)[nH]c3cnc(OCCN4CCCCC4)cc32)CC1` [Example 20, cis-Methyl 4-((E)-2-(benzoylimino)-6-(2-(piperidin-1-yl)ethoxy)-2,3-dihydro-1H-imidazo[4,5-c]pyridin-1-yl)cyclohexanecarboxylate], the IC50 was less than 50 nM. `C[C@@H]1CNCCN1C(=O)[C@H]1CC[C@@H](n2/c(=N/C(=O)c3ccc(C#N)cc3)[nH]c3cnc(OCCN4CCCCC4)cc32)CC1` [Example 58, (E)-4-Cyano-N-(1-(cis-4-((R)-2-methylpiperazine-1-carbonyl)cyclohexyl)-6-(2-(piperidin-1-yl)ethoxy)-1H-imidazo[4,5-c]pyridin-2(3H)-ylidene)benzamide] showed an IC50 of less than 50 nM. In the case of `CC(C)NC(=O)[C@H]1CC[C@@H](n2/c(=N/C(=O)c3ccc(F)cc3)[nH]c3ccc(CN4CCC[C@H]4C(=O)O)cc32)CC1` [Example 54, (S)-1-(((E)-2-(4-Fluorobenzoylimino)-3-(cis-4-(isopropylcarbamoyl)cyclohexyl)-2,3-dihydro-1H-benzo[d]imidazol-5-yl)methyl)pyrrolidine-2-carboxylic acid hydrochloride], the IC50 is less than 50 nM.

`CC(C)NC(=O)[C@H]1CC[C@@H](n2/c(=N/C(=O)c3ccc(F)cc3)[nH]c3cnc(N4CCN(C)CC4)cc32)CC1` [Example 225, (E)-4-Fluoro-N-(1-(cis-4-(isopropylcarbamoyl)cyclohexyl)-6-(4-methylpiperazin-1-yl)-1H-imidazo[4,5-c]pyridin-2(3H)-ylidene)benzamide] had a half-inhibitory concentration (IC50) of less than 50 nM. `CC(C)NC(=O)[C@H]1CC[C@@H](n2/c(=N/C(=O)c3ccc(S(C)(=O)=O)cc3)[nH]c3cnc(OCCN4CCCCC4)cc32)CC1` [Example 120, (E)-N-(1-(cis-4-(Isopropylcarbamoyl)cyclohexyl)-6-(2-(piperidin-1-yl)ethoxy)-1H-imidazo[4,5-c]pyridin-2(3H)-ylidene)-4-(methylsulfonyl)benzamide]: the IC50 lay in the range of 100 to 1000 nM. Take `N#C[C@]1(c2ccccn2)C[C@H](n2/c(=N/C(=O)c3ccc(F)cc3)[nH]c3cnc(OCCN4CCCCC4)cc32)C1` [Example 241, (E)-N-(1-(cis-3-Cyano-3-(pyridin-2-yl)cyclobutyl)-6-(2-(piperidin-1-yl)ethoxy)-1H-imidazo[4,5-c]pyridin-2(3H)-ylidene)-4-fluorobenzamide]: the IC50 was 100 to 1000 nM. Still for that read-out and setting: to `CC(C)NC(=O)[C@H]1CC[C@@H](n2/c(=N/C(=O)c3ccc(F)cc3)[nH]c3cnc(Cl)cc32)CC1` [Example 160, (E)-N-(6-Chloro-1-(cis-4-(isopropylcarbamoyl)cyclohexyl)-1H-imidazo[4,5-c]pyridin-2(3H)-ylidene)-4-fluorobenzamide] belongs less than 50 nM. `CC(C)(C)NC(=O)[C@H]1CC[C@@H](n2/c(=N/C(=O)c3ccc(F)cc3)[nH]c3ccc(CN4CCC(C(C)(C)O)CC4)cc32)CC1` [Example 215, (E)-N-(1-(cis-4-(tert-Butylcarbamoyl)cyclohexyl)-6-((4-(2-hydroxypropan-2-yl)piperidin-1-yl)methyl)-1H-benzo[d]imidazol-2(3H)-ylidene)-4-fluorobenzamide] returned an IC50 of less than 50 nM.

The same experiment, now with this note: 2 nM enzyme, ATP 40 μM (Km apparent), 90 minutes at room temperature; mean of three replicates.
As to `CC(C)NC(=O)[C@H]1CC[C@@H](n2/c(=N/C(=O)c3ccc(F)c(Cl)c3)[nH]c3cnc(OCCN4CCCCC4)cc32)CC1` [Example 118, (E)-3-Chloro-4-fluoro-N-(1-(cis-4-(isopropylcarbamoyl)cyclohexyl)-6-(2-(piperidin-1-yl)ethoxy)-1H-imidazo[4,5-c]pyridin-2(3H)-ylidene)benzamide], the IC50 is less than 50 nM.

As a reminder, the IC50 is the concentration at which inhibition is half-maximal.
